Test results reported in a melting point compilation (Tetko et al.; mined from patent text by program, amines drawn as free bases though some values may be those of a salt).

Row | Structure (SMILES) | melting point [°C]
1 | CC(C)(C)c1cc(C[PH](=O)O)cc(C(C)(C)C)c1O | 147 to 149
2 | CN1C(C)(C)CN(CCO)C(=O)C1(C)C | 77 to 80
3 | Nc1cccc(Sc2cccc3c2C(=O)c2cccc(Sc4cccc(N)c4)c2C3=O)c1 | 292 to 293
4 | CCCCCc1cc(OC)c(C2=C[C@H]3CC[C@]2(CO)C3(C)C)c(OC)c1 | 26 to 27
5 | CC(C)(C)OC(=O)N1CCN(O)CC1 | 95 to 97
6 | O=C(NC1CC2CC(N3CCN(c4ccccc4)CC3)CC2C1)c1ccccc1 (stereo not drawn) | 211 to 212
7 | Cc1sccc1-c1nc2c3ccsc3ccn2c1N | 161 to 162
8 | COc1ccc(C(O)(Cc2ccncc2)c2ccncc2)cc1OC1CCCC1 (stereo not drawn) | 99 to 103
9 | CC(=O)Oc1ccc(C2CCC(=O)CC2)cc1 | 104 to 106
10 | Cc1nnc2n1-c1sc3c(c1C(c1ccccc1Cl)=NC2)CCN(C(=S)NCc1ccccc1C(F)(F)F)C3 | 178 to 184
11 | c1cnn2cnnc2c1 | 140 to 141
12 | CCN(CC)c1ccc(/C=C/c2cc(/C=C/c3ccc4cc[nH]c4c3)[nH]n2)c(OC)c1 | 104 to 108
13 | Clc1ccc(C2=NNCC2n2cc(Cl)cn2)cc1 (stereo not drawn) | 176
14 | Cc1cc(S(=O)(=O)c2ccccc2)ccc1[N+](=O)[O-] | 70 to 71
15 | COC(=O)C1CCC2C(CCC3C(C)(C)CCCC23C)C(=O)C1 (stereo not drawn) | 67 to 68
16 | CCCCn1nc2c(N)nc3ccccc3c2c1CCCS(=O)(=O)c1ccccc1 | 206 to 207
17 | O=C(/C=C/c1ccc2c(/C=C/C(=O)N3CCCC3)c[nH]c2c1)N1CCCC1 | 268 to 270
18 | O=C1CCn2ncnc2N1 | 276 to 280
19 | CCNC(=O)c1ccc(N2CCN(Cc3cnc4c(c3)[nH]c(=O)n3cccc43)CC2)cc1 | 252 to 260
20 | Oc1nc2ccc3ncsc3c2nc1O | > 360
21 | CC(=NO)c1nn(C)c2cc(OCC3CC3(Cl)Cl)c(F)cc12 (stereo not drawn) | 150 to 152
22 | O=C1Cc2cccc(Oc3ccc4ccccc4c3)c2N1 | 195 to 197

Row | Structure (SMILES) | melting point [°C]
23 | CNC(=S)C1(c2cccnn2)CCCS1 (stereo not drawn) | 199
24 | COC(=O)C1CC(O)C(=O)N1 (stereo not drawn) | 85 to 86
25 | COc1ccc(S(=O)(=O)Nc2cccc3c2N(C)c2ccccc2O3)cc1 | 151 to 153
26 | CC1(C)CC(C)(O)C2C3CCCCC3C2(C)C1 (stereo not drawn) | 76.6 to 77.4
27 | O=C1NCCN1Cc1cccc(F)c1 | 103 to 105
28 | CC(C)(C)OC(=O)N1C(=O)[C@@H](O[Si](C)(C)C)[C@H]1c1ccccc1 | 85 to 88
29 | CC(C)(C)c1cc(C=O)c2c(c1O)CCC2 | 213 to 214
30 | O=C(O)c1n[nH]c2c1C=CC(c1ccccc1)(c1ccccc1)C2 | > 260
31 | c1ccc(C(c2ccccc2)(c2ccccc2)N2CCCCC2)cc1 | 156 to 158
32 | COc1ccc(N2CCN(C(=O)C(C)(C)C3OCCc4ccccc43)CC2)cc1 (stereo not drawn) | 120 to 121
33 | CCOC(=O)c1ncn2c1CN(C)C(=O)c1cc(C#N)ccc1-2 | 184
34 | OCc1ccc2ccc3c4ccccc4ccc3c2c1 | 187 to 189
35 | CCOP(=O)(OCC)Oc1cc(CC)ccc1C1CCN(CCCCNC(=O)c2ccc(NC(=O)c3ccc(Cl)cc3)cc2)CC1 | 158 to 160
36 | COc1ccc(S(=O)(=O)Oc2ccc(N3CCNC3=O)cc2)cc1 | 126 to 127
37 | CCOC(=O)c1sc(Oc2cccnc2)c2c1CCc1cnn(C)c1-2 | 247 to 248
38 | CCCS(=O)c1ccc([N+](=O)[O-])c(N)c1 (stereo not drawn) | 128 to 130
39 | CN1CC2c3cccn3Cc3ccccc3N2C(=O)C1=O (stereo not drawn) | 178 to 179
40 | CCCN1C(=O)N2C[C@@H](Cc3ccccc3)N=C2c2[nH]c(C3(O)CCCC3)nc21 | 110 to 115
41 | COc1ccc(CCN2CCC(C(=O)c3nc4ccccc4s3)CC2)cc1 | 119 to 120
42 | Cc1oc(-c2ccccc2)nc1CC#Cc1ccc(CC(C(=O)O)c2ccc(-c3ccccc3)cc2)cc1 (stereo not drawn) | 163 to 165
43 | CC1(C)C(=O)Nc2cc(-c3nc4ccccc4[nH]3)ccc21 | 326 to 330
44 | NCCc1c[nH]c2cc3c(cc12)C(=O)NCC3 | 82 to 86

Now from value to compound:

Row | melting point [°C] | Structure (SMILES)
45 | 200 to 201 | CSc1cc2n(c1C(=O)c1ccc(Cl)cc1)CCC2C(=O)O (stereo not drawn)
46 | 65 to 67 | COCCOC(=O)CS(=O)C(C)c1ccc(-c2ccccc2F)cc1 (stereo not drawn)
47 | 272 to 273 | Cc1ccc(S(=O)(=O)Nc2ccc3nnc(C(=O)O)c(O)c3c2)cc1
48 | 105 | CC(C)OP(=O)(/C=C/CCn1cnc2c(Cl)ncnc21)OC(C)C
49 | 180 to 182 | CCOP(=O)(Cc1ccc(NC(=S)Nc2cc(-c3cc4cc(F)c(F)cc4[nH]3)ccc2OC)cc1)OCC
50 | 95 to 99 | COC(=O)C(=O)c1ccc(OCCOc2ccc3c(c2)CCCC3)cc1
51 | 236 to 238 | CC1(C)OC(=O)Nc2ccc(-c3coc(C=NO)c3)cc21
52 | 135 to 136 | Cc1nc(N2C[C@@H](C)N(Cc3ccc(F)cc3)C2=O)sc1C(=O)NCc1cccnc1
53 | 106 to 107 | CCOC(=O)C(NC(=O)CC(=O)C=Cc1ccccc1[N+](=O)[O-])C(C)C (stereo not drawn)
54 | 115 | COC(=O)CCc1cnc(C)s1
55 | 221 to 222 | COC(=O)c1cccc2[nH]c(-c3ccc(Cl)cc3)c(C=O)c12
56 | 58 to 68 | O=C(NO)c1ccccn1
57 | 222 | O=C(O)c1nccnc1C(=O)Nc1ccc(Cl)cn1
58 | 82 to 85 | COC(=O)c1cc(O)c([N+](=O)[O-])cc1C(=O)OC
59 | 262 to 266 | Nc1ccc(-c2cc(=O)c(C(=O)O)cn2-c2ccc(F)cc2)cc1
60 | 216 | CC1=C(C(=O)NC(C)(C)C)C(c2ccccc2Cl)C(C(=O)OC(C)C)=C(COCCCc2nc3ccccc3n2C)N1 (stereo not drawn)
61 | 127 | O=C(N[C@H]1CCN(Cc2ccccc2)C[C@H]1O)c1ccccc1O (relative stereo)
62 | 122 | COC(=O)C(=C1SCCCN1C(=O)C(Cl)Cl)[N+](=O)[O-]
63 | 286 | O=C(O)CCn1c2ccc(O)cc2c2c3c(c(-c4ccccc4Cl)cc21)C(=O)NC3=O
64 | 94 | OCCCOc1cc(-c2ccccc2)cc(-c2ccccc2)n1

Row | melting point [°C] | Structure (SMILES)
65 | 194 to 196 | CNC(=O)N1CCC(=C2c3ccc(Cl)cc3CCc3cccnc32)CC1
66 | 93 to 96 | CCCN(CC)C(C)CN1CCc2c(c(=O)oc3cc(OC)c(OC)cc23)C1 (stereo not drawn)
67 | 201 to 202 | CCCn1nc2c(N)nc3ccccc3c2c1CCN1CCCS1(=O)=O
68 | 93.1 | CNC1=NN(c2cccc(C(F)(F)F)c2)CC1
69 | 94 to 95 | Cc1cc2cc(F)ccc2n1-c1ccc(OCc2ccccc2)cc1
70 | 195 to 197 | Fc1cc(F)cc(Cc2cccnc2S)c1
71 | 95 to 96 | OC(CCc1cccnc1)COc1ccc(CCc2ccccc2)cc1 (stereo not drawn)
72 | 154 to 156 | Nc1ncc(-c2ccc3c(c2)CCC(NCC(F)(F)F)CC3)c(N)n1 (stereo not drawn)
73 | 136 to 138 | COc1ccc2c(c1)CC(=O)N2N
74 | 156 to 158 | CONC(=O)Nc1ccc(-c2nc3n(Cc4c(F)cccc4F)cc(C(=O)OC(C)C)c(=O)n3c2CN(C)Cc2ccccc2)cc1
75 | 100 to 101 | O=[N+]([O-])c1cc(CBr)cc(CBr)c1
76 | 164 to 165 | COc1ccc(C(=O)c2c(N)sc3c2CCN(Cc2ccccc2)C3)cc1
77 | 131 to 133 | CCCCNC(=O)S(=O)(=O)Nc1sc(CC(C)C)cc1-c1ccc(Cn2c(-c3ccccc3)nc(OC)c2C=O)cc1
78 | 147 to 149 | CCCCCCCCc1ccc(-c2ncc(O)cn2)cc1
79 | 134 to 136 | CCOC(=O)c1cccc2c1Nc1ccc(C(=O)c3ccccc3)cc1N2Cc1ccccc1
80 | 117 to 118 | O=C(O)CC(CC(=O)Nc1cc(OCC=C(Cl)Cl)c(Cl)cc1F)C(F)(F)F (stereo not drawn)
81 | 59 to 61 | CCCC(SCC(=O)O)c1ccc2c(c1)OCO2 (stereo not drawn)
82 | 153 to 155 | COC(=O)NC1=NCC(c2ccccc2F)N1C (stereo not drawn)
83 | 130 | Cc1ccc(S(=O)(=O)N2[C@@H](CCl)CC[C@H]2c2ccc(F)cc2)cc1 (racemic)
84 | 70 to 72 | COC(=O)[C@H](Cc1cccc2ccccc12)NC(=O)[C@H](CC(=O)OC(C)(C)C)NC(=O)c1cccc(N)c1

Row | melting point [°C] | Structure (SMILES)
85 | > 300 | COCCn1cc2c(C3C(=O)Nc4ccc(Br)cc43)nc(NCC(C)O)nc2n1 (stereo not drawn)
86 | 96 | CC1(C)SC(c2cc3ccccc3o2)NC1C(=O)O (stereo not drawn)
87 | 164 to 165 | FC(F)(F)c1cccc(CSc2nnc(-c3ccnc4[nH]ccc34)o2)c1
88 | 143 to 144 | CC(C)=CCNC(=O)N1CC(Oc2cccc(C(F)(F)F)c2)C1
89 | 137 to 138 | O=C(Nc1ccc(F)c(CBr)c1)c1ccccn1
90 | 171 to 175 | COc1ccc(C(=O)C2CCCCC2C(=O)O)cc1OC (stereo not drawn)
91 | 164 to 165 | CCCCc1ncc(/C=C2\C(=O)NC(=O)N2Cc2cccs2)n1Cc1ccc(C(=O)OC)cc1
92 | 180 to 181 | CC(C)S(=O)(=O)n1c(N)nc2ccc(C(=CCl)c3ccccc3)cc21
93 | 125 to 126 | Cc1cc(C)c2c(c1O)C(NC(=O)CN1CCN(c3cccc(Cl)c3)CC1)C(C)(C)C2 (stereo not drawn)
94 | 75 to 77 | CCCCCCCCOC(=O)C1=CC(=O)C(C(=O)OCCCCCCCC)=C(S(=O)(=O)c2ccc(C)cc2)C1=O
95 | 197 to 198 | CC1(C)CC(=S)Nc2ccc(-c3cccc(Cl)c3)cc21
96 | 134 to 135 | Cc1ncc2cc(Cl)nc(Cl)n12
97 | 130 to 132 | CCCCCCCCOc1ccc(-c2cnc(-c3ccc(O)c(F)c3F)nc2)cn1
98 | 115 to 120 | N[C@@H](Cc1ccccc1)C(=O)N(C(=O)Cc1cc(F)cc(F)c1)[C@@H]1C(=O)Nc2ccccc2S[C@@H]1c1ccccc1
99 | 162 to 164 | CCOC(=O)c1sc(N)nc1-c1ccccc1Cl
100 | 116 to 118 | CC(=O)Oc1c(Cl)c(C(C)(C)C)oc(=O)c1-c1c(C)cc(C)cc1C
101 | 166 to 168 | Cc1nc(-c2ccccc2)cc(-c2cccc(C#N)c2)c1C(=O)NCCN1CCOCC1
102 | 143 to 144 | O=C(NC1=NN(c2cccc(Cl)c2)CC1)C(F)(F)F
103 | 260 to 265 | O=C(Nc1n[nH]c(-c2ccc(F)cc2)c1-c1ccncc1)C(F)(F)F
